Laboratory results: patent US20090239285A1, “TANDEM REAPEAT DNA CONSTRUCTS PRODUCING PROTEINS THAT ATTACK PLANT PATHOGENIC VIRUSES, FUNGI, AND BACTERIA BY DISRUPTING TRANSCRIPTION FACTORS ESSENTIAL FOR REPLICATION THEREOF IN PLANTS” (priority 2008, published 2009)
Entries after “also recorded” stand apart in the source; their conditions may differ. Like-named read-outs stand apart in the source and are kept apart here.

Legend:
[1] = system: mammalian retroviruses; conditions: millimolar concentrations, in vitro; cited from earlier work
[2] = system: Mammalian rotaviruses; conditions: millimolar concentrations, in vitro; cited from earlier work
[3] = system: Common ornamental plant cells infected by viruses; assay: Treatment of virus-infected ornamental plants with antiviral agents; conditions: viral strains not determined
[4] = system: Orobanche ramose; conditions: Arabidopsis thaliana pre-treated with FU; cited from earlier work
[5] = system: virus-infected host cells (HSV-1, HSV-2, HIV-1, Hepatitis C); assay: Fate of virus-infected host cells after treatment; format: cell-based; conditions: for fate of virus and host cells: HIV-1, Hepatitis C and numerous other viruses
Source text: Because DnaJ proteins are zinc finger proteins, these proteins can be neutralized and render non-functional by using picolinic acid and derivatives thereof. DnaJ is essential for protein-related cellular functions in both non-infected normal plant and animal cells. […] In contrast, in virally infected cells, picolinic acid and derivatives thereof have pronounced toxic effects which may include suppression of DnaJ proteins. Virally infected cells were killed by picolinic acid and derivatives thereof by apoptosis. In plant cells, this process is denoted as PCD.
APOPTOSIS. Apoptosis is a morphological pattern of cell injury and an important mode of cell death (Robbins, Pathological Basis of Disease, 1999, 6th Ed). Apoptosis shares and overlaps common mechanisms with necrosis. […] This form of cell death is designed to eliminate defective, unwanted and damaged cells. For example, the inventors have shown that cells infected by Herpes Simplex Virus 1 (HSV; labialis) and HSV-2 genitalis are destroyed together with the host cells that they infected by apoptosis when exposed to pyridine carboxylates (Fernandez-Pol, Anticancer Res. 2002). […] Thus, the inventors believes that when host cells of animals or plants are infected by pathogenic viruses, unless the treatment is extremely quickly, the host cells and the virus will be destroyed. In fact, host cells defective, mutated, and reservoirs for the novo synthesis of viruses are unwanted host cells and must be eliminated in many instances to allow the survival of the organism.

[6] = system: HSV-2; conditions: in tissue culture and in animals; cited from earlier work
[7] = biological target: T1, recombinant MPS-1 (Homo sapiens, UniProt P42677); assay: Gel shift assay and radioactive Zn65 release from recombinant MPS-1; format: biochemical; conditions: for zinc dependent binding of recombinant MPS-1 to DNA: gel shift assays
T1 construct: made in house
Source text: MPS-1 is a ubiquitous tumor marker and cell growth stimulator and is described in detail in the inventors' U.S. Pat. No. 5,243,041. MPS-1 has one zinc finger domain of the type CCCC. […] This is detected by a change in the electrophoretic mobility of MPS-1 under non-denaturing conditions. These experiments indicate that picolinic acid and derivatives should remove zinc and denature various types of zinc finger, zinc ring proteins, or other types of ZF motifs whether known or heretofore undiscovered, including animal or plant viral proteins such as nucleocapsid proteins of retrovirus or the nucleocapsid proteins of Geminivirus. Furthermore, the inventors have determined that any chemical compound, whether known or heretofore undiscovered, that will remove the zinc (or other metal) and denature the proteins or that will form a ternary complex (protein-zinc-chelator) can be effective as an antiviral agent, with nontoxic effects, provided that the agent conforms with certain specific structural requirements.

[8] = system: HSV-1; conditions: in tissue culture and in animals; cited from earlier work
[9] = biological target: T2, Zn(HIV1-F1) zinc finger peptide (N-terminal CCHC region of the HIV-LA1 gag polyprotein) (Human immunodeficiency virus type 1 group M subtype B, UniProt P03348); assay: NMR studies of ligand binding by a zinc finger peptide from HIV-1; conditions: for binding to Zn(HIV1-F1): NMR spectroscopy, titration and NOESY
T2 construct: corresponds to the N-terminal CCHC region of the HIV-LA1 gag polyprotein (amino acids 390-470); made in house; host or cells: chemical synthesis (synthetic peptide)
Source text: The interaction between two of the ligands of this invention (Fusaric acid and picolinic acid) and their binding by a Zinc Finger Peptide from HIV-1 containing a zinc finger motif were studied by NMR spectroscopy (FIGS. 16, and 16.1-4).
The peptide sequence […], corresponds to the N-terminal CCHC region of the HIV-LA1 gag polyprotein (amino acids 390-470). The peptide containing the complex of zinc atom bound to the zinc finger domain of the peptide was named: Zn (HIV1-F1).
A synthetic oligonucleotide with sequence corresponding to a region of HIV-1 psi-packaging signal, d (ACGCC) was complexed with the peptide (South and Summers, 1993).Fusaric Acid [[…]] was denoted FSR-488 and picolinic acid [2-pyridine carboxylic acid] was denoted PCL-016. Interactions of FSR-488 and PCL-016 with the zinc finger peptide containing Zn [Zn(HIV1-F1)] were studied by NMR spectroscopy. […] Titration experiments with each of the two molecules caused shifts in the ^1H resonances of Zn(HIV1-F1) that are similar to those observed when the peptide binds analogs of its natural substrate. Two dimensional NOE correlation spectroscopy (NOESY) of the solution containing Zn(HIV1-F1) and FSR-488 gave cross peaks at frequencies that are consistent with contacts between FSR-488 and hydrogen nuclei in the hydrophobic cleft of the peptide.
A sample containing peptide (1.63 mM) and Zn^2+ (2 mM) was titrated with a solution of FSR-488. The experiment was monitored by one dimensional ^1H NMR spectroscopy. Under conditions in which the free zinc in the buffer was minimized, titrations with FSR-488 were conducted. Addition of FSR-488 yielded spectral shifts in the spectrum of the peptide (FIGS. 16, and 16.1-4). […] This experimental finding and conclusions led the inventors to run a second 2D NOESY experiment, this time at the higher concentration of FSR-488.
The NOESY spectrum at the high concentration of [FSR-488]. was considerable different than that measured at low concentrations of [FSR-488]. […] Interpretations for these assignments are presented in detailed below.

[10] = system: Arabidopsis thaliana; conditions: in vivo; cited from earlier work
[11] = system: SV40 transformed BALB-3T3 cells; conditions: cited from earlier work
[12] = system: normal cells (NRK, BALB 3T3, WI-348); assay: Control of growth by picolinic acid in normal cells; conditions: normal animal cells
Source text: Cells transformed (made cancerous) by different viruses that contain ZFP respond differently to picolinic acid. […] Numerous transformed cell lines (Fernandez-Pol, Proc. Natl. Acad. Sci. USA, 74:2889-2893, 1977) were exposed to PA and the points of arrest varied. […] Two important facts emerged from studies with transformed cell lines.

[13] = system: NRK cells; conditions: cells treated with picolinic acid; cited from earlier work
[14] = system: virally-transformed cells; conditions: further incubation / longer exposure, all transformed cells; cited from earlier work
[15] = system: Arabidopsis thaliana; conditions: cited from earlier work
[16] = system: normal cells (NRK, BALB 3T3, WI-348); conditions: cited from earlier work
[17] = system: iron incorporation into cells; conditions: cited from earlier work
[18] = system: Rice suspension cells and leaves; conditions: cited from earlier work; for hypersensitive response (HR): rice
[19] = system: tomato spotted wilt virus; conditions: cited from earlier work

Question: For `O=C(O)CN(CCN(CC(=O)O)CC(=O)O)CC(=O)O` [EDTA], which “viral integrity, measured by release of reverse transcriptase” value [1] is on record?
Answer: Its value is “partial disintegration of viral membranes”.

Question: And the viral integrity [2]?
Answer: Its viral integrity is “partial disintegration of the viral membranes”.

Question: With `O=C(O)CN(CCOCCOCCN(CC(=O)O)CC(=O)O)CC(=O)O` [EGTA] as the molecule, how does the “viral integrity, measured by release of reverse transcriptase” value [1] read?
Answer: Its value is “partial disintegration of viral membranes”.

Question: And the viral integrity [2]?
Answer: The viral integrity was “partial disintegration of the viral membranes”.

Question: With `CCCCc1ccc(C(=O)O)nc1` [Fusaric acid, 5-butyl picolinic acid] as the molecule, how does the “outcome of treatment of virus-infected ornamental plants” value [3] read?
Answer: Its value is “positive results”.

Question: What about the germination of parasite [4] of the same molecule?
Answer: The germination of parasite was “inhibited”.

Question: And the “fate of virus and host cells” value [5]?
Answer: Its value is “Death by apoptosis”.

Question: What about the “efficacy against viral infection” value [6] of the same molecule?
Answer: The value was “effective”.

Question: What about the “removal of zinc from CCCC zinc finger of MPS-1” value [7] of the same molecule?
Answer: The value was “remove radioactive Zn65; also recorded: remove zinc”.

Question: And the “zinc dependent binding of recombinant MPS-1 to DNA” value [7]?
Answer: Its value is “inhibit”.

Question: And the “efficacy against viral infection” value [8]?
Answer: Its value is “effective”.

Question: What about the “binding to Zn(HIV1-F1)” value [9] of the same molecule?
Answer: The value was “bind Zn(HIV1-F1) at a hydrophobic cleft”.

Question: And the “binding in one dimensional 1H NMR titration” value ([9]; peptide 1.63 mM, Zn2+ 2 mM, free zinc minimized)?
Answer: Its value is “competitively binds both Zn^2+ and the Zn^2+/Peptide complex”.

Question: And the “concentration eliciting plant defense responses without toxic effects” value [10]?
Answer: The value was 100 nM.

Question: What about the “concentration reducing root growth and inducing membrane hyperpolarization then depolarization” value [10] of the same molecule?
Answer: The value was over 500 µM.

Question: For `NC(=O)c1cccnc1` [Nicotinamide], which “effect on cell growth or apoptosis” value ([11]; at 48h) is on record?
Answer: The value was “no effect”.

Question: What about the morphology [11] of the same molecule?
Answer: Its morphology is “flatten”.

Question: For `O=C(O)c1ccccn1` [Picolinic acid, 2-pyridine carboxylic acid], which “outcome of treatment of virus-infected ornamental plants” value [3] is on record?
Answer: The value was “positive results”.

Question: And the “suppression of DnaJ-like proteins” value [12]?
Answer: Its value is “did not lead to the suppression”.

Question: What about the “fate of virus and host cells” value [5] of the same molecule?
Answer: Its value is “Death by apoptosis”.

Question: And the “fate of virally infected cells” value ([5]; virally infected cells)?
Answer: Its value is “killed”.

Question: What about the “potency of prostaglandin E1 in elevating cyclic AMP” value [13] of the same molecule?
Answer: Its value is “two to five times more potent”.

Question: And the mitochondrial effect ([11]; 3 mM picolinic acid)?
Answer: Its mitochondrial effect is “released cytochrome c”.

Question: What about the “toxicity in transformed cells” value [14] of the same molecule?
Answer: Its value is “cytotoxicity and cell death; also recorded: cell death by apoptosis”.

Question: And the “removal of zinc from CCCC zinc finger of MPS-1” value [7]?
Answer: Its value is “remove radioactive Zn65; also recorded: remove zinc”.

Question: What about the “zinc dependent binding of recombinant MPS-1 to DNA” value [7] of the same molecule?
Answer: The value was “inhibit”.

Question: What about the “marker defense genes PR-1, PR-2 and PDF1.2” value ([15]; dose-dependent and time dependent) of the same molecule?
Answer: Its value is “all induced”.

Question: What about the “hypersensitive response (HR)” value ([15]; including oxidative burst and cell death) of the same molecule?
Answer: Its value is “induced HR”.

Question: What about the “binding to Zn(HIV1-F1)” value [9] of the same molecule?
Answer: Its value is “bind Zn(HIV1-F1) at a hydrophobic cleft”.

Question: What about the “phase of cell cycle arrest” value ([16]; Normal rat kidney (NRK) cells) of the same molecule?
Answer: Its value is “arrested in G1”.

Question: And the “toxicity in normal cells” value [16]?
Answer: The value was “no toxic effects”.

Question: What about the “incorporation of iron into the cells” value [17] of the same molecule?
Answer: Its value is “inhibits incorporation of iron”.

Question: What about the “removal of radioiron from the cells” value [17] of the same molecule?
Answer: Its value is “effectively removes radioiron”.

Question: What about the cell death ([18]; Rice suspension cells and leaves) of the same molecule?
Answer: Its cell death is “apoptosis”.

Question: What about the “reactive oxygen species (ROS)” value ([18]; rice suspension cells, Ca2+-dependent) of the same molecule?
Answer: The value was “induced reactive oxygen species (ROS)”.

Question: And the “hypersensitive response (HR)” value [18]?
Answer: Its value is “elicits hypersensitive-like response”.

Question: What about the “hypersensitive response (HR)” value ([18]; listed as Alpha-picolinic acid) of the same molecule?
Answer: The value was “can elicit the hypersensitive response (HR)”.

Question: Which use against virus ([19]; tomato and tobacco plants) does the source give for `NC(=O)c1ncn([C@@H]2O[C@H](CO)[C@@H](O)[C@H]2O)n1` [Ribavirin] here?
Answer: Its use against virus is “successfully used”.

Question: And the “host in which most efficient” value ([19]; tomato versus tobacco)?
Answer: Its value is “most efficient in tomato plants”.
